The assay concerns the target USP14 (Homo sapiens (Human), UniProt P54578). The experiment in a line: USP14 Inhibition Assay. In kind it is biochemical. Conditions: average value from a minimum of two experimental determinations; for IC50: read-out: IC50 Category. On the procedure: Example 17: USP14 Inhibition Assay
“I” in the Table below designates an IC50 of >5 μM, “II” in the Table below designates and IC50 between 0.5 and 5 μM, and “III” designates an IC50<0.5 μM. The IC50 values in the Table below represent the average value from a minimum of two experimental determinations.

As a reminder, the IC50 is the point on the concentration scale where inhibition reaches its midpoint.

Structures can show the parent of a compound that is named as a salt. A value given as a limit tells only on which side of the number the result lay.

USP14, sequence (P54578 whole entry, looked up): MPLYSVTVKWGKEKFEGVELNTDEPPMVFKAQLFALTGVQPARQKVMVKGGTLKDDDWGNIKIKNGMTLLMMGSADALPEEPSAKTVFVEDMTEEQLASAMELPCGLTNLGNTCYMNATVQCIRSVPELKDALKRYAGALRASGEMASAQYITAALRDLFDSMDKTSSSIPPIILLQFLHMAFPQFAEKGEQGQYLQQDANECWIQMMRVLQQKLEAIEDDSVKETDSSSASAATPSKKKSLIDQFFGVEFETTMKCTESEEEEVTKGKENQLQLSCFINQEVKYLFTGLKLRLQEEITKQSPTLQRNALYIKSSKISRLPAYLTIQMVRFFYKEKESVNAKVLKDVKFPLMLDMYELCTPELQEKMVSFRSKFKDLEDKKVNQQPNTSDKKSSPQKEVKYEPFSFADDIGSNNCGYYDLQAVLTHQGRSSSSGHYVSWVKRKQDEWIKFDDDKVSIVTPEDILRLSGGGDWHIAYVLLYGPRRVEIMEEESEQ

Consider `CCOC(=O)CCc1cc2c(nc1C)c(C(=O)CN1CCCCC1)c(C)n2-c1ccc(C#N)cc1` [Compound 200, Ethyl 3-(1-(4-Cyanophenyl)-2,5-dimethyl-3-(2-(piperidin-1-yl)acetyl)-1H-pyrrolo[3,2-b]pyridin-6-yl)propanoate], for which the IC50 was less than 500 nM.
The same measure, in the same setting: the value for `Cc1c(C(=O)CN2CCCCC2)c2ccc(CCC(=O)O)cc2n1-c1ccc(C#N)cc1` [Compound 201, 3-(1-(4-Cyanophenyl)-2-methyl-3-(2-(piperidin-1-yl)acetyl)-1H-indol-6-yl)propanoic Acid] was less than 500 nM; that for `Cc1nc2c(C(=O)CN3CCCCC3)c(C)n(-c3ccc(C#N)cc3)c2cc1CCC(=O)O` [Compound 202, 3-(1-(4-Cyanophenyl)-2,5-dimethyl-3-(2-(piperidin-1-yl)acetyl)-1H-pyrrolo[3,2-b]pyridin-6-yl)propanoic Acid Hydrochloride Salt] was less than 500 nM.
On to `Cc1c(C(=O)CN2CCCCC2)c2ccc(CC(N)=O)cc2n1-c1ccc(C#N)cc1` [Compound 203, 2-(1-(4-Cyanophenyl)-2-methyl-3-(2-(piperidin-1-yl)acetyl)-1H-indol-6-yl)acetamide], for which the concentration for half-maximal inhibition (IC50) is less than 500 nM.
Same read-out and setting: the value for `CCN(CC)C(=O)CCc1cc2c(nc1C)c(C(=O)CN1CCCCC1)c(C)n2-c1ccc(C#N)cc1` [Compound 204, 3-(1-(4-Cyanophenyl)-2,5-dimethyl-3-(2-(piperidin-1-yl)acetyl)-1H-pyrrolo[3,2-b]pyridin-6-yl)-N,N-diethylpropanamide] was less than 500 nM; that for `CC(=O)OCCc1ccc2c(C(=O)CN3CCCCC3)c(C)n(-c3ccc(C#N)cc3)c2c1` [Compound 205, 2-(1-(4-Cyanophenyl)-2-methyl-3-(2-(piperidin-1-yl)acetyl)-1H-indol-6-yl)ethyl Acetate] was less than 500 nM.
With `C=Cc1ccc2c(C(=O)CN3CCCCC3)c(C)n(-c3ccc(C#N)cc3)c2c1` [Compound 206, 4-(2-Methyl-3-(2-(piperidin-1-yl)acetyl)-6-vinyl-1H-indol-1-yl)benzonitrile], the IC50 was less than 500 nM.
For `Cc1c(C(=O)CN2CCCCC2)c2ccc(CCO)cc2n1-c1ccc(C#N)cc1` [Compound 207, 4-(6-(2-Hydroxyethyl)-2-methyl-3-(2-(piperidin-1-yl)acetyl)-1H-indol-1-yl)benzonitrile], the IC50 is less than 500 nM.
On the same count and under the same terms, the result for `Cc1c(C(=O)CN2CCCCC2)c2nc(-n3nccn3)ccc2n1-c1ccc(C#N)cc1` [Compound 208, 4-(2-Methyl-3-(2-(piperidin-1-yl)acetyl)-5-(2H-1,2,3-triazol-2-yl)-1H-pyrrolo[3,2-b]pyridin-1-yl)benzonitrile] reads less than 500 nM.
On the same count and under the same terms, the result for `Cc1c(C(=O)CN2CCCCC2)c2nc(-n3ccnn3)ccc2n1-c1ccc(C#N)cc1` [Compound 209, 4-(2-Methyl-3-(2-(piperidin-1-yl)acetyl)-5-(1H-1,2,3-triazol-1-yl)-1H-pyrrolo[3,2-b]pyridin-1-yl)benzonitrile] reads less than 500 nM; that for `Cc1nc2c(C(=O)CN3CCCCC3)c(C)n(-c3ccc(C#N)cc3)c2cc1CCC(N)=O` [Compound 210, 3-(1-(4-Cyanophenyl)-2,5-dimethyl-3-(2-(piperidin-1-yl)acetyl)-1H-pyrrolo[3,2-b]pyridin-6-yl)propanamide], less than 500 nM.
The same measure, in the same setting: the result for `COC(CNC(=O)CCc1cnc2c(C(=O)CN3CCCCC3)c(C)n(-c3ccc(C#N)cc3)c2c1)OC` [Compound 296] reads less than 500 nM; that for `Cc1c(C(=O)CN2CCCCC2)c2ncc(Br)cc2n1-c1ccc(C#N)cc1` [Compound 297, 4-(6-Bromo-2-methyl-3-(2-(piperidin-1-yl)acetyl)-1H-pyrrolo[3,2-b]pyridin-1-yl)benzonitrile], less than 500 nM.
On to `Cc1c(C(=O)CN2CCCCC2)c2ncc(CC(=O)N3CCCC3)cc2n1-c1ccc(C#N)cc1` [Compound 298, 4-(2-Methyl-6-(2-oxo-2-(pyrrolidin-1-yl)ethyl)-3-(2-(piperidin-1-yl)acetyl)-1H-pyrrolo[3,2-b]pyridin-1-yl)benzonitrile], for which the IC50 is less than 500 nM.
On the same count and under the same terms, the result for `Cc1c(C(=O)CN2CCCCC2)c2ncc(CCC(=O)NCCCN=[N+]=[N-])cc2n1-c1ccc(C#N)cc1` [Compound 299] reads less than 500 nM; that for `Cc1c(C(=O)CN2CCCCC2)c2ncc(C(F)(F)F)cc2n1-c1ccc(C#N)cc1` [Compound 300], less than 500 nM.
Same read-out and setting: the result for `Cc1c(C(=O)CN2CCCCC2)c2ncc(C(F)F)cc2n1-c1ccc(C#N)cc1` [Compound 301, 4-(6-(Difluoromethyl)-2-methyl-3-(2-(piperidin-1-yl)acetyl)-1H-pyrrolo[3,2-b]pyridin-1-yl)benzonitrile] reads less than 500 nM.
Turning to `Cc1c(C(=O)CN2CCC(O)CC2)c2ncc(C(F)(F)F)cc2n1-c1ccc(C#N)cc1` [Compound 302], the IC50 was less than 500 nM.
Still for that read-out and setting: the result for `CCN(CCc1cnc2c(C(=O)CN3CCCCC3)c(C)n(-c3ccc(Cl)cc3)c2c1)S(C)(=O)=O` [Compound 303, N-(2-(1-(4-Chlorophenyl)-2-methyl-3-(2-(piperidin-1-yl)acetyl)-1H-pyrrolo[3,2-b]pyridin-6-yl)ethyl)-N-ethylmethanesulfonamide] reads less than 500 nM.
For the compound `Cc1c(C(=O)CN2CCCCC2)c2ncc(CCC(=O)NCCN=[N+]=[N-])cc2n1-c1ccc(C#N)cc1` [Compound 304], the half-inhibitory concentration (IC50) is less than 500 nM.
On the same count and under the same terms, the value for `CCNC(=O)/C=C/c1cnc2c(C(=O)CN3CCCCC3)c(C)n(-c3ccc(C#N)cc3)c2c1` [Compound 305, (E)-3-(1-(4-Cyanophenyl)-2-methyl-3-(2-(piperidin-1-yl)acetyl)-1H-pyrrolo[3,2-b]pyridin-6-yl)-N-ethylacrylamide] was less than 500 nM.
With `Cc1c(C(=O)CN2CCC[C@H]2C)c2ncc(Br)cc2n1-c1ccc(C#N)cc1` [Compound 306], the “IC50 Category” value is listed as “IIII”.
Consider `Cc1c(C(=O)CN2CCC[C@@H]2C)c2ncc(Br)cc2n1-c1ccc(C#N)cc1` [Compound 307], for which the IC50 was less than 500 nM.
The same measure, in the same setting: the result for `Cc1c(C(=O)CN2CCCC[C@@H]2C)c2ncc(Br)cc2n1-c1ccc(C#N)cc1` [Compound 308] reads less than 500 nM.
With `Cc1c(C(=O)CN2CCCC[C@H]2C)c2ncc(Br)cc2n1-c1ccc(C#N)cc1` [Compound 309], the half-maximal inhibitory concentration (IC50) was less than 500 nM.
As to `Cc1c(C(=O)CN2CCCC2(C)C)c2ncc(Br)cc2n1-c1ccc(C#N)cc1` [Compound 310], the IC50 is less than 500 nM.
Same read-out and setting: the result for `COC1CCN(CC(=O)c2c(C)n(-c3ccc(C#N)cc3)c3cc(Br)cnc23)CC1` [Compound 311] reads less than 500 nM.
Same read-out and setting: the value for `Cc1c(C(=O)CN2CCC(CO)CC2)c2ncc(Br)cc2n1-c1ccc(C#N)cc1` [Compound 312] was 500 to 5000 nM.
The same measure, in the same setting: the value for `Cc1c(C(=O)CN2CC=CCC2)c2ncc(Br)cc2n1-c1ccc(C#N)cc1` [Compound 314] was 500 to 5000 nM; that for `Cc1c(C(=O)CN2CC=CC2)c2ncc(Br)cc2n1-c1ccc(C#N)cc1` [Compound 315] was less than 500 nM; that for `Cc1c(C(=O)CN2CCCCC2(C)C)c2ncc(Br)cc2n1-c1ccc(C#N)cc1` [Compound 318] was less than 500 nM.
In the case of `Cc1c(C(=O)CN2CCCCC2)c2ncc(C#CCOC(=O)N(C)C)cc2n1-c1ccc(C#N)cc1` [Compound 319, 3-(1-(4-Cyanophenyl)-2-methyl-3-(2-(piperidin-1-yl)acetyl)-1H-pyrrolo[3,2-b]pyridin-6-yl)prop-2-yn-1-yl Dimethylcarbamate], the IC50 is less than 500 nM.

The values are drawn from patent US11242361B2 (Proteostasis Therapeutics, Inc., priority 2013, dated 2022).
